{"source": "patent US9402848B2", "about": "“Method for treating pain syndrome and other disorders” (VM Therapeutics LLC, priority 2008, dated 2016)", "key": {"[1]": {"tested_on": "Carrageenan-induced pain in rat animal model of hyperalgesia", "assay": "Carrageenan-induced pain in rat animal model of hyperalgesia", "assay_type": "in vivo", "conditions": "FIG. 2 and FIG. 3"}, "[2]": {"tested_on": "Formalin induced pain in rat animal models of hyperalgesia", "assay": "Rat Formalin Paw Test", "assay_type": "in vivo", "conditions": "FIG. 1", "method": "Rat Formalin Paw Test (in Vivo Assay): Compounds were assessed for their ability to inhibit the behavioral response evoked by an injection of formalin (50 μl of 5% formalin). A metal band was affixed to the left hind paw of male Holtzman rats (225-250 g, Harlan Industries, Indianapolis Ind.) and each rat was conditioned to the band for 60 min within a plastic cylinder (15 cm diameter). Rats were dosed with either vehicle, positive control compound or a test compound either before (local) or after (systemic) formalin challenge. For local administration, compounds were prepared in either a 1:1.5 vehicle of saline (in mL) and (D)- or (L)-Tartaric acid (in mg), or a 1:1:6 vehicle of DMA (N,N-Dimethylacetamide), Tween 80 and saline, and injected […] into the dorsal surface of the right hind paw of the rat 60 min prior to formalin. The number of flinches was counted continuously for 60 min using an automated nociception analyzer (UCSD Anesthesiology Research, San Diego, Calif.). Statistical significance was determined by comparing the total flinches detected in the early (0-10 min, Phase I) and late (11-60 min) phase with an unpaired t-test. […]"}}}
{"molecule": "Cc1nc2ccccn2c(=O)c1CCN1CCC(C(=O)c2ccc(F)cc2)CC1", "note": "[Compound 10, 3-(2-{4-[(4-fluorophenyl)carbonyl]piperidin-1-yl}ethyl)-2-methyl-4H-pyrido[1,2-a]pyrimidin-4-one]", "values": [{"measurement": "reduction of Carrageenan-induced pain", "setting": "[1]", "value": "reduction of Carrageenan-induced pain"}, {"measurement": "reduction of Formalin induced pain", "setting": "[2]", "value": "reduction of Formalin induced pain"}]}
